According to paper PMC3823043 (Journal of Cellular and Molecular Medicine, 2008):

Target: delta opioid receptor (DOR), murine, wild-type (Mus musculus, UniProt P32300)
Assay: [3H]naltrindole radioligand binding
Settings: labelled compound; HEK293 DOR clone; no affinity constant printed

delta opioid receptor (DOR), murine, wild-type, sequence (P32300 whole entry): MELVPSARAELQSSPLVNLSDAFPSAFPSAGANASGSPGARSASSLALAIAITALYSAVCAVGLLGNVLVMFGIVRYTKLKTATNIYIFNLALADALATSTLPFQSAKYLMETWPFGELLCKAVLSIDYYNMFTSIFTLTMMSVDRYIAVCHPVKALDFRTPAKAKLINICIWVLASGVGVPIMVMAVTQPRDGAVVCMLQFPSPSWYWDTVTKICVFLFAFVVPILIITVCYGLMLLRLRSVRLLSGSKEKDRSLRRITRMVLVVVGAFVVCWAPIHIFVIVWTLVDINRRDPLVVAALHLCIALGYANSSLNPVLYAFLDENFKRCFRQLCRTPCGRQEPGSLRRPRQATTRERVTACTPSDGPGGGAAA

SMILES: Oc1ccc2c3c1O[C@H]1c4[nH]c5ccccc5c4C[C@@]4(O)[C@@H](C2)N(CC2CC2)CC[C@]314 [[3H]naltrindole]
- [3H]naltrindole radioligand binding: Receptor expression levels in DOR clones was assessed by means of [^3H]Naltrindole binding
